Patent publication US20040249124A1 (priority 2001, published 2004)

System: antibody MBS-3 binding to p17
Experiment: Competitive ELISA: displacement of MBS-3 binding to p17 absorbed in solid phase

## NH2-Ser-Gly-Gly-Glu-Leu-Asp-Arg-Trp-Glu-Lys-Ile-Arg-Leu-Arg-COOH (H-SGGELDRWEKIRLR-OH) [SEQ ID NO: 2]
  displacing the binding of the antibody MBS-3 to p17: efficacious in displacing
